Test results from patent US10246786B2, “Renewable bioelectronic interface for electrobiocatalytic reactor” (priority 2009, dated 2019).
Each block holds one compound with its values, some of them ahead of it.

Assays:
[1] = tested on: Mannitol dehydrogenase from Thermotoga maritima (TmMtDH); experiment: Cyclic voltammetry of the Gly-TBO-PEI-NADH-TmMtDH-modified electrode with sugar substrates (calibration plot, saturation current, turnover); format: biochemical; details: substrate tested on Gly-TBO-PEI-NADH-TmMtDH-modified electrode; 100 mM PBS pH 6.0, 60° C.
Experimental: Cyclic voltammetric experiments were conducted by sweeping the potential of the working electrode between 200 mV and −600 mV at a scan rate of 100 mV s^−1, causing fructose in the vicinity of the electrode to be reduced to mannitol in the […] direction and mannitol to be oxidized to fructose in the reverse direction. All electrochemical measurements were made in 100 mM PBS (pH 6.0) at 60° C. using an electrode with a controlled surface area of 0.07 cm^2. The slope of the calibration plot, which depicts peak current vs. concentration, is a measure of the biosensor's sensitivity. The maximum turnover rate (TRmax), which corresponds to the number of fructose molecules reduced per TmMtDH molecule per second, was calculated using Eq. 6 (Eisenwiener and Schulz, 1969):
[formula] where the background current (I0) and saturation current (Icat^sat) are given by the y-intercept of the calibration curve and the plateau current at a given concentration, respectively. Electrochemical Impedance Spectroscopy
The slope of the calibration curve (0.70±0.01 μA) mM^−1 cm^−2) is a measure of the biosensor's sensitivity. At higher concentrations, the anodic current reached a saturation value (Icat^sat=740.9±11.6 μA cm^−2). This value was used to calculate a TRmax, which represents the number of molecules of fructose reduction per TmMtDH molecule per second, of 57.5±2.8 s^−1, using Eq. 6 (Eisenwiener and Schulz, 1969).
The selectivity of the Gly-TBO-PEI-NADH-TmMtDH-modified electrode was examined by testing alternative substrates.

[2] = carboxylic acid group; cited from earlier work

SMILES: NCC(=O)O [Gly, Glycine]
pKa [2]: ~4.3

SMILES: O=C(O)CCS [MPA]
pKa [2]: ~4.3

Continued, values first:

Icat^sat [1]: 542.8 ± 9.1 μA cm^−2 | Sensitivity [1]: 0.3 ± 0.0 μA mM^−1 cm^−2
SMILES: OC1COC(O)C(O)C1O (centres unmarked) [Arbinose, arbinose]

Icat^sat [1]: 562.4 ± 1.4 μA cm^−2 | Sensitivity [1]: 0.4 ± 0.0 μA mM^−1 cm^−2
SMILES: O=C(CO)[C@H](O)[C@@H](O)[C@H](O)CO [Sorbose, sorbose]

Icat^sat [1]: 748.2 ± 11.7 μA cm^−2 | Sensitivity [1]: 10.1 ± 0.2 μA mM^−1 cm^−2
SMILES: O=C(CO)[C@@H](O)[C@H](O)[C@H](O)CO [Fructose, D-fructose]
